Data published in patent publication US5470714A, “One-step free fatty acid determination method” (Lidak Pharmaceuticals, priority 1993, dated 1995).

Tests used:
[1] = biological target: T1, I-FABP (native, rat intestinal) (Rattus norvegicus, UniProt P02693); assay: Tryptophan fluorescence of native I-FABP on addition of FFA; format: binding; conditions: as much as
T1 construct: made in house; host or cells: E. coli BL21 (pET11D)
T1 sequence (P02693 1-132): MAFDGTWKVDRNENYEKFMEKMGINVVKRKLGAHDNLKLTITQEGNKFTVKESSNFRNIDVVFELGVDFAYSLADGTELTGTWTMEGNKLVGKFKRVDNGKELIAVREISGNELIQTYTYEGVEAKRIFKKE
Method: In early work, cloning was carried out using a cDNA library from neo-natal rat intestine purchased from STRATAGENE (11099 North Torrey Pines Rd., La Jolla, CA 92037). The library is carried by the LAMBDA ZAP II vector and was used with the E. coil host strain XL 1Blue which is supplied with the library. The recombinant clone was identified with an oligonucleotide probe based upon the published sequence of the I-FABP DNA (Lowe, J. B., Sacchettini, J. C., Laposata, M., McQuillan, J. J. and Gordon, J. I. J. Biol. Chem. 262:5931, 1987) and sequencing of 5and 3regions was used to verify the identity and completeness of the gene. […] The I-FABP gene was removed from the lambda Zap vector and inserted into a PET expression vector (PET11 D) purchased from Novagen and the protein was expressed using the E. coil strains (BL2 1) also from Novagen (Madison, WI, USA). I-FABP is isolated from E. coil and purified as described, Lowe, J. B., Sacchettini, J. C., Laposata, M., McQuillan, J. J. and Gordon, J. I. J. Biol. Chem. 262:5931, 1987. In this procedure cells, after a 3-hour culture, are lysed, centrifuged to remove cell debris and the pellet frozen at -70 °C. The frozen pellet was allowed to thaw in the presence of a lysing buffer composed of 50mM Tris, 0.5mM EDTA, 0.5mM PMSF, 0.1% Triton X100, at pH 8.0. This was centrifuged at 20,000 g. for 45 minutes and the pellet was discarded. The lysate was then subjected to two rounds (50% and 70%) of ammonium sulfate precipitation and the supernatant from the 70% material was desalted and concentrated using an Amicon ultrafiltration apparatus with a YM10 filter. The flitrate was then subjected to DEAE-Sephadex (A50), followed by Sephadex G-75 chromatography and the low molecular weight fractions were saved. This material gives a single band on 12% PAGE and an amino acid analysis of this material was consistent with the amino acid sequence of I-FABP. […] The addition of FFA (oleate, stearate, or palmitate) reduced the tryptophan fluorescence of the native protein by as much as 40%.

[2] = biological target: ADIFAB (Acrylodan derivatized native rat I-FABP, Lys27) (Rattus norvegicus, UniProt P02693); assay: biochemical; format: binding; conditions: for rank of Kd, in words: among the long chain FA of Table I
Method: In most of the studies FFA was added to ADIFAB, in a buffer (A) consisting of 10 Mm HEPES, 150 Mm NaCI, 5 mM KCI, and 1 mM NaHPO4 at pH 7.4, as the sodium salt of the fatty acid. […] FA bind to most surfaces and values of the total FA concentration ([FAT]) were corrected for FA binding to cuvette and container walls. This binding was determined using trace amounts of […] labeled FA and, separately, ADIFAB florescence to determine the degree of FA loss upon transfer from one container to another. […] To minimize FA binding to surfaces, the monomer concentrations of stock solutions of the Na salts were maintained at pH >9.0 in water, and were warmed to >37° C. just prior to use. The polyunsaturated forms of the FA are subject to oxidation and it was observed that dissociation constants for binding to ADIFAB (Kd) were considerably greater for the oxidized FA. Care was taken to reduce the exposure of the FA salts to oxygen (all handling was carried out under Argon) and to store them at -20° C.
The concentrations of FA in the aqueous phase (FFA) and FA bound to ADIFAB ([FAb ]) were determined from the ratio of fluorescence emission intensities at 432 and 505 nm (R). The values FFA and [FAb ]were related to the ratio of intensities essentially by the method of Grynkiewicz et. al. (Grynkiewicz, G., Poenie, M., & Tsien, R. Y. (1985) J. Biol. Chem. 260, 3440-3450), according to which:
[FAb ]=[ADIFABtotal ]Q(fr)/(1-fr+FRQ) FR
are the ADIFAB intensities with zero and saturating concentrations of FFA, Ro is the intensity ratio in the absence of FFA and Rmax is the value when ADIFAB is saturated.
Because of the limiting solubility of long chain FA in aqueous solution Rmax and Q cannot. in general, be determined directly. To determine Rmax and Q, ADIFAB was titrated with lauric acid (12:0) whose high CMC allowed maximum R values (~10-11) to be measured that were considerably greater than with longer chain FA. From this titration a linear correlation was found between Q and R. Using Q, R pairs predicted by this relationship, a two parameter (Kd and Rmax) least squares analysis of each FA was done using the equation for equilibrium binding;
1/[FAb ]=(Kd/[ADIFAB])/FFA+1/[ADIFAB] (3)
Optimal Q and Rmax values obtained in this analysis were in the range 17-22 and 10 and 13, respectively, with average values of 19.5 and 11.5. Final Kd values for each FA were then determined by least squares analysis of equation (3) with Q and Rmax fixed at 19.5 and 11.5, respectively.
Fluorescence measurements to monitor Acrylodan fluorescence in various solvents, to monitor adduct formation, and to obtain complete spectra were carried out using an SLM 8000C fluorometer. Measurements of the 505/432 intensity ratios (R values) used to monitor the FFA titrations of ADIFAB were done with either the SLM 8000C or a Perkin-Elmer MPF-2A fluorometer.
ADIFAB dose response to FFA and FFA aggregate formation was measured. The ratio of fluorescent intensities at emission wavelengths of 505/432 nm were measured as a function of added Na salts of several FFA. Resulting data are depicted graphically in FIGS. 6A, 6B and 6C. Conditions were similar to those used in FIG. 3 except that 100mM EGTA was used in obtaining the data depicted in FIGS. 6A and 6B, while the data depicted in FIG. 6C was obtained using 1 mM CaCl2. Measured R values were used to determine FFA and [FFAb]using equations (1) and (2). The solid curves through the data of FIGS. 6A and 6C represent best fits of equation (3) obtained using a non-linear least squares algorithm. Aggregate formation was detected by measuring 90° light scattering from FFA in the buffer of FIG. 3 containing no added calcium and titrated with the Na salts of the FFA as described above, see FIG. 6B. The smoothed curves through the data, intended to guide-the-eye, indicate that aggregate formation, as detected by a sharp increase in light scattering, is approximately coincident with the maximum R value observed in the experiment related to FIG. 6A. […]

[3] = Fluorescence response of fluorescent-FABP probes to fatty acid binding; format: biochemical
Text: Principles and exemplary methods for constructing probes as described and defined herein and methods for determining FFA levels are described in detail below. Using these principles fourteen different fluorescent-FABP derivatives have been constructed. This has been done using 3 different native FABPs (rat intestine (I-FABP), human adipocyte (A-FABP), and human heart (H-FABP)) plus 4 site-specific mutants of two of these (I-FABP, (Thr83Cys83, Thr81Cys81, Lys27Cys27 and H-FABP, Thr27Lys27), and these proteins have been derivatized with 4 different fluorophores (acrylodan, danzyl aziridine, 4-[N-[(2-iodoacetoxy)ethyl]-N-methylamino]-7-nitrobenz-2-oxa1,3-diazole ester (IANBDE), 4-[N-[(2-iodoacetoxy)ethyl]-N-methylamino]-7-nitrobenz-2-oxa-1,3-diazole these derivatives can serve as FFA probes, to some degree. To date, however, ADIFAB remains the one that has optimal properties for current applications. Obviously, by occupying, partially, the binding site with a fluorophore, FA must compete for its site and therefore the FA binding constant for the FABP may be altered from the native protein. This is indeed the case for ADIFAB for which the Kd is about 10 fold greater than for the native protein. So long as FA can bind, however, the derivatized molecule can still function as a FFA probe and so long as the probe's dynamic range is sufficient (as it is for ADIFAB, IANBDE and IANBDA) then FFA levels over a wide range, including those that are physiologic, can be measured.
The Cys27 mutant of I-FABP (Lys27 to Cys27) with acrylodan, IANBDE and IANBDA have also been labeled using the technique described. […] This is the behavior predicted from the construction principles set forth herein, and reflects the shorter tethering arm to Cys27 as compared to Lys27 which prevents the deeper insertion into the binding site that is observed in the Lys27 derivative. […] Thus, those skilled in the art can with considerable confidence predict whether protein modifications and/or choice of label will result in a FFA responsive probe.
Site-directed mutagenesis was used to introduce a cysteine residue at positions 82 or 84, in place of the threonine residues that are normally at this position. Mutagenesis was carried out by annealing a synthetic prirner with a single mismatched base to the above derived expression vector. The primer was extended and ligated in vitro, and the resulting heteroduplex was used to transfect the host strain. The transfected host was screened for the mutated DNA by hybridization with the mutating oligonucleotide. Mutated plasmid DNA was isolated, retransformed into the host strain, and its structure confirmed by sequencing the recombinant DNA in regions defined by probes flanking the mutated region. This modified protein was expressed in the same system and purified by the same methods as for the native protein. Typical yields of purified protein were approximately 50 mg/liter cell culture. The mutated I-FABP protein was fluorescently derivatized by inserting a fluorescent group (which reacts specifically with free SH groups) at the newly created cysteine residue. The cysteine residue was inserted at positions 82 (replacing a threonine residue) and/or at residue 84 (also a threonine residue) since both these positions face outward from the FFA binding pocket but are in close proximity to the tryptophan at position 83 (about 3.5Å lateral separation along the b strand and about 10Å vertical separation between the centers of the tryptophan and fluorescent residues). […] Thus, either the direct emission of the fluorescent group and/or the rate of resonance energy transfer between Trp83 and the fluorescent group was postulated to change. In a non-limiting prior specific example, the dansyl derivative ACRYLODAN®(6-acryloly-2dimethylamenonaphthalene) was used to modify the mutated FABP and this probe was designated FAD508.
ADIFAB dose response to FFA and FFA aggregate formation was measured. […]

[4] = FA-ADIFAB Dissociation Constants, Kd, no added calcium, FIG. 6A, buffer A pH 7.4

CCCCCCCCCCCCCCCCCC(=O)O [stearate]
reduction of the tryptophan fluorescence of the native protein [1]: ≤ 40%

CCCCCCCC/C=C\CCCCCCCC(=O)O [OLEATE, oleate]
Kd [2, 4]: 280 ± 10 nM | Kd ([2]; Kd in the presence of calcium, 1 mM calcium): 310 nM | rank of Kd, in words [2]: smallest Kds | reduction of the tryptophan fluorescence of the native protein [1]: ≤ 40%

CCCCCCCCCCCCCCCC(=O)O [PALMITATE, palmitate]
Kd [2, 4]: 320 ± 10 nM | rank of Kd, in words [2]: smallest Kds | Kd relative to oleate (fold greater than oleate) ([2]; normalized to oleate): about 1.1 fold | reduction of the tryptophan fluorescence of the native protein [1]: ≤ 40%

B1: Native A-FABP labeled with acrylodan: Native A-FABP which contains two cysteines, was labeled with acrylodan (conjugate, UniProt P15090 2-132, looked up)
Fatty acid-binding protein, …: CDAFVGTWKLVSSENFDDYMKEVGVGFATRKVAGMAKPNMIISVNGDVITIKSESTFKNTEISFILGQEFDEVTADDRKVKSTITLDGGVLVHVQKWDGKSTTIKRKREDDKLVVECVMKGVTSTRVYERA
modifications: acrylodan label
responsiveness of the probe to FA binding, in words [3]: only poorly responsive

B2: Native A-FABP labeled with NBD: Native A-FABP labeled with the N-[7-(4-nitrobenzo-2-oxa-1,3-diazol) (NBD) moieties (conjugate, UniProt P15090 2-132, looked up)
Fatty acid-binding protein, …: CDAFVGTWKLVSSENFDDYMKEVGVGFATRKVAGMAKPNMIISVNGDVITIKSESTFKNTEISFILGQEFDEVTADDRKVKSTITLDGGVLVHVQKWDGKSTTIKRKREDDKLVVECVMKGVTSTRVYERA
modifications: NBD label
notes: Native A-FABP labeled with the N-[7-(4-nitrobenzo-2-oxa-1,3-diazol) (NBD) moieties
responsiveness of the probe to FA binding, in words [3]: only poorly responsive

B3: Cys27 mutant of I-FABP with acrylodan: Cys27 mutant of I-FABP (Lys27 to Cys27) with acrylodan (conjugate, UniProt P02693 2-132, looked up, variant K27C)
Fatty acid-binding protein, …: AFDGTWKVDRNENYEKFMEKMGINVVCRKLGAHDNLKLTITQEGNKFTVKESSNFRNIDVVFELGVDFAYSLADGTELTGTWTMEGNKLVGKFKRVDNGKELIAVREISGNELIQTYTYEGVEAKRIFKKE
modifications: acrylodan label
responsiveness of the probe to FA binding, in words [3]: the relative change upon FA binding is smaller than for ADIFAB
